Drawing on BindingDB's records for doi:10.1016/j.bmcl.2019.126899 (Sanford Burnham Prebys Medical Discovery Institute, 2020), this text covers IC50 for 1 molecule.

The nature of this assay: Inhibition of CXCR6-mediated cell invasion in human SKHEP1 cells after 72 hrs by transwell assay.

Molecules are shown by their SMILES.

For `COc1cc(C(=O)N[C@@H]2C[C@H]3CCC[C@@H](C2)N3Cc2nc3c(C(F)(F)F)cccc3s2)cc(OC)c1OC`, the midpoint of inhibition, the IC50, lay at 2100 nM.

Usually IC50 stands for the concentration at which inhibition is half-maximal. Lower therefore signals higher potency.
